Values quoted from earlier work as cited in PubChem BioAssay AID1259410 (Chemical Carcinogenesis Research Information System (CCRIS), 2018).

Tested on: rodent tumor promotion studies, tumor incidence
Assay: CCRIS tumor promotion studies
Source text: The CCRIS database contains chemical records with carcinogenicity, mutagenicity, tumor promotion, and tumor inhibition test results. It was developed by the National Cancer Institute (NCI). Data are derived from studies cited in primary journals, current awareness tools, NCI reports, and other sources. Test results have been reviewed by experts in carcinogenesis and mutagenesis.
CCRIS provides historical information from the years 1985 - 2011. It is no longer updated.
This is an archive assay for CCRIS tumor promotion studies.

ClC(Cl)(Cl)Cl
outcome (Carcinogen: 3'-METHYL-4-DIMETHYLAMINOAZOBENZENE, Doses [Carcinogen]: DIET, Route [Carcinogen]: ORAL, Species: RAT, Strain/Sex: FEMALE): liver
outcome (Carcinogen: (+/-)-TRANS-7,8-DIHYDROBENZO[A]PYRENE-7,8-DIOL, 61443-57-0, Doses [Carcinogen]: 1 UG CO-ADMINISTERED WITH PROMOTER DOSE, Doses [Promoter]: 1 UG INJECTED INTO NEWLY HATCHED SAC-FRY CO-ADMINISTERED WITH CARCINOGEN DOSE (STUDY DURATION: 9 MO), Route [Carcinogen]: INJECTION, Route [Promoter]: INJECTION, Species: FISH, Strain/Sex: RAINBOW TROUT/MALE,FEMALE): liver: tumor
outcome (Doses [Carcinogen]: 20 NG/SAC-FRY, Doses [Promoter]: 0, 1 ML/KG AT 21-DAY INTERVALS FOR A TOTAL OF 3 DOSES BEGINNING 25 D POST CARCINOGEN TREATMENT (STUDY DURATION: 3 MO), Route [Carcinogen]: INJECTION, Route [Promoter]: INTRAPERITONEAL, Species: FISH, Strain/Sex: RAINBOW TROUT): liver: basophilic carcinoma

CN(C)C(=S)SSC(=S)N(C)C
outcome (Carcinogen: 7,12-DIMETHYLBENZ[A]ANTHRACENE, 57-97-6, Doses [Carcinogen]: 52 UG IN 100 µL ACETONE ONCE, Doses [Promoter]: 0, 100 MG/KG BW IN 100 µL DMSO 3/WK FOR 51 WK BEGINNING 1 WK POST CARCINOGEN DOSE (STUDY DURATION: 52 WK), Route [Carcinogen]: DERMAL, Route [Promoter]: DERMAL, Species: MOUSE, Strain/Sex: SWISS/FEMALE): skin: tumor
outcome (Carcinogen: 7,12-DIMETHYLBENZ[A]ANTHRACENE, 57-97-6, Doses [Carcinogen]: 52 UG IN 100 µL ACETONE ONCE, Doses [Promoter]: 0, 100 MG/KG BW IN 100 µL DMSO 3/WK FOR 51 WK BEGINNING 1 WK POST CARCINOGEN DOSE (STUDY DURATION: 52 WK), Route [Carcinogen]: DERMAL, Route [Promoter]: DERMAL, Species: MOUSE, Strain/Sex: SWISS/MALE): skin: tumor

COC[C@@H]([C@H](O)[C@H](O)C(=O)NCC[C@H](C)c1nc(/C=C/C[C@@H]2O[C@]3(C[C@@H](O)[C@@H]2C)O[C@H]([C@H](C[C@H](O)[C@H](C)[C@H](O)[C@H](C)/C=C(C)/C(C)=C/C=C/C(C)=C\C#N)OC)[C@H](OP(=O)(O)O)C3(C)C)co1)N(C)C
outcome (Carcinogen: 7,12-DIMETHYLBENZ[A]ANTHRACENE, 57-97-6, Doses [Carcinogen]: 100 UG IN 0.1 ML ACETONE TO THE DORSAL SKIN ONCE, Doses [Promoter]: 0, 0.1, 1 UG IN 0.1 ML ACETONE TO THE DORSAL SKIN 2/WK FOR 29 WK BEGINNING 1 WK POST CARCINOGEN DOSE (STUDY DURATION: 30, Doses [Promoter]: 0, 0.1, 1 UG IN 0.1 ML ACETONE TO THE DORSAL SKIN 2/WK FOR 29 WK BEGINNING 1 WK POST CARCINOGEN DOSE (STUDY DURATION: 30, Route [Carcinogen]: DERMAL, Route [Promoter]: DERMAL, Species: MOUSE, Strain/Sex: CD-1/FEMALE): skin: papilloma

S=C=NCc1ccccc1
outcome (Carcinogen: DIETHYLNITROSAMINE, 55-18-5, N-BUTYL-N-(4-HYDROXYBUTYL)NITROSAMINE, 3817-11-6, Carcinogen: DIETHYLNITROSAMINE, 55-18-5, N-BUTYL-N-(4-HYDROXYBUTYL)NITROSAMINE, 3817-11-6, Doses [Carcinogen]: 200 MG/KG DEN ONCE THEN 0.05% BBN IN DRINKING WATER FOR 4 WK, Doses [Promoter]: 0, 0.1% IN DIET FOR 32 WK BEGINNING 3 D POST CARCINOGEN TREATMENT (STUDY DURATION:36 WK), Route [Carcinogen]: INTRAPERITONEAL, ORAL, Route [Promoter]: ORAL, Species: RAT, Strain/Sex: F344/MALE): urinary bladder: papilloma, carcinoma

CCCCCCCCCCCC
outcome (Carcinogen: 7,12-DIMETHYLBENZ(A)ANTHRACENE, Doses [Carcinogen]: TOP, Route [Carcinogen]: DERMAL, Route [Promoter]: DERMAL, Species: MOUSE, Strain/Sex: FEMALE): integumentary system (skin)

CC[C@H](C)[C@H](N)C(=O)O
outcome (Carcinogen: N-BUTYL-N-(4-HYDROXYBUTYL)NITROSAMINE, 3817-11-6, Doses [Carcinogen]: 0.05% IN DRINKING WATER FOR 4 WK, Doses [Promoter]: 0, 2% IN DIET BEGINNING POST CARCINOGEN TREATMENT AND CONTINUING FOR DURATION OF STUDY (STUDY DURATION: 40 WK), Route [Carcinogen]: ORAL, Route [Promoter]: ORAL, Species: RAT, Strain/Sex: F344/MALE): bladder: carcinoma

CC(=O)O[C@]1(C(C)=O)CC[C@H]2[C@@H]3C[C@H](C)C4=CC(=O)CC[C@]4(C)[C@H]3CC[C@@]21C
outcome (Carcinogen: 7,12-DIMETHYLBENZ[A]ANTHRACENE, 57-97-6, Doses [Carcinogen]: 1 MG IN 0.1 ML COTTONSEED OIL 1/WK AT WKS 9,10,12 AND 13 OF AGE, Doses [Promoter]: 0, 20 MG EACH IN 2 PELLETS IMPLANTED IN THE INTERSCAPULAR AREA AT 6 WK OF AGE (STUDY DURATION: 15 MO), Route [Carcinogen]: GAVAGE, Route [Promoter]: SUBCUTANEOUS IMPLANT, Species: MOUSE, Strain/Sex: CD2F1/FEMALE): mammary gland: tumor
outcome (Carcinogen: METHYLNITROSOUREA, 684-93-5, Doses [Carcinogen]: 50 MG/KG BW ONCE, Doses [Promoter]: 0, 40 MG DEPOT EVERY 3 MO BEGINNING 1 WK POST CARCINOGEN DOSE (STUDY DURATION: 9 MO), Route [Carcinogen]: INTRAPERITONEAL, Route [Promoter]: SUBCUTANEOUS, Species: MOUSE, Strain/Sex: BALB/FEMALE): mammary gland: carcinoma
outcome (Carcinogen: METHYLNITROSOUREA, 684-93-5, Doses [Carcinogen]: 50 MG/KG BW ONCE, Doses [Promoter]: 0, 40 MG DEPOT EVERY 3 MO BEGINNING 1 WK PRIOR TO CARCINOGEN DOSE (STUDY DURATION: 9 MO), Route [Carcinogen]: INTRAPERITONEAL, Route [Promoter]: SUBCUTANEOUS, Species: MOUSE, Strain/Sex: BALB/FEMALE): mammary gland: carcinoma

Oc1ccccc1-c1ccccc1
outcome (Carcinogen: 7,12-DIMETHYLBENZ[A]ANTHRACENE, 57-97-6, Doses [Carcinogen]: 10 UG 2/WK FOR 5 WK, Doses [Promoter]: 0, 5 MG 2/WK FOR 47 WK BEGINNING 1 WK AFTER LAST CARCINOGEN DOSE (STUDY DURATION: 53 WK), Route [Carcinogen]: DERMAL, Route [Promoter]: DERMAL, Species: MOUSE, Strain/Sex: CD-1/FEMALE): skin: papilloma, carcinoma
outcome (Carcinogen: N-BUTYL-N-4(HYDROXYBUTYL)NITROSAMINE, 3817-11-6, Doses [Carcinogen]: 0.05% IN DRINKING WATER FOR 2 WK, Doses [Promoter]: 0, 2% IN DIET STARTING POST CARCINOGEN AND CONTINUING FOR 22 WK, LEFT URETER LIGATED 8 D POST CARCINOGEN (STUDY DURATION, Route [Carcinogen]: ORAL, Route [Promoter]: ORAL, Species: RAT, Strain/Sex: F344/MALE): bladder: papilloma
outcome (Carcinogen: N-BUTYL-N-(4-HYDROXYBUTYL)NITROSAMINE, Doses [Carcinogen]: 0.05% IN DRINKING WATER FOR 4 WK, Doses [Promoter]: 2.0% IN DIET FOR 32 WK AFTER INITIATION, Route [Carcinogen]: ORAL, Route [Promoter]: ORAL, Species: RAT, Strain/Sex: F344/MALE): urinary bladder: transitional cell carcinoma

Cc1c(N(C)CS(=O)(=O)O)c(=O)n(-c2ccccc2)n1C
outcome (Carcinogen: DIETHYLNITROSAMINE, 55-18-5, Doses [Carcinogen]: 0.O1% IN DRINKING WATER FOR 2 WK, Doses [Promoter]: 0.4% IN DRINKING WATER 5 D/ WK FOR 72 WK BEGINNING 1 WK POST CARCINOGEN (STUDY DURATION: 83 WK), Route [Carcinogen]: ORAL, Route [Promoter]: ORAL, Species: RAT, Strain/Sex: F344/MALE): liver neoplastic nodule, hepatocellular carcinoma ; kidney: adenoma

ClC1=C(Cl)C2(Cl)C3C(Cl)C=CC3C1(Cl)C2(Cl)Cl (stereo not given)
outcome (Carcinogen: DIETHYLNITROSAMINE, 55-18-5, Doses [Carcinogen]: 20 PPM IN DRINKING WATER FOR 14 WK, Doses [Promoter]: 0, 5, 10 PPM TECHNICAL GRADE IN DIET BEGINNING 4 WK POST LAST CARCINOGEN DOSE AND CONTINUING FOR 25 WK (STUDY DURATION:, Doses [Promoter]: 0, 5, 10 PPM TECHNICAL GRADE IN DIET BEGINNING 4 WK POST LAST CARCINOGEN DOSE AND CONTINUING FOR 25 WK (STUDY DURATION:, Route [Carcinogen]: ORAL, Route [Promoter]: ORAL, Species: MOUSE, Strain/Sex: B6C3F1/MALE): liver: adenoma or carcinoma

[K+]
outcome (Carcinogen: N-BIS-(2-HYDROXYPROPYL)NITROSAMINE [53609-64-6], Doses [Carcinogen]: 2800 MG/KG BW ONCE (STUDY DURATION: 83 WK), Doses [Promoter]: 1000 PPM IN DRINKING WATER FOR 82 WK BEGINNING 1 WK POST LAST CARCINOGEN DOSE (STUDY DURATION: 83 WK), Route [Carcinogen]: SUBCUTANEOUS, Route [Promoter]: ORAL, Species: RAT, Strain/Sex: F344/MALE): thyroid gland: follicular cell carcinoma
outcome (Carcinogen: N-Ethyl-N-hydroxyethylnitrosamine, 13147-25-6, Doses [Carcinogen]: 500 ppm in drinking water for 2 wk, Doses [Promoter]: 0, 350, 1750 ppm in drinking water beginning post carcinogen treatment and continuing for 24 wk (study duration: 26 wk), Doses [Promoter]: 0, 350, 1750 ppm in drinking water beginning post carcinogen treatment and continuing for 24 wk (study duration: 26 wk), Route [Carcinogen]: Oral, Route [Promoter]: Oral, Species: Rat, Strain/Sex: F344/Male (15/group)): kidney: renal cell tumors (no promoting effect observed)

CN[C@@H]1C[C@H]2O[C@@](C)([C@@H]1OC)n1c3ccccc3c3c4c(c5c6ccccc6n2c5c31)C(=O)NC4
outcome (Carcinogen: 7,12-DIMETHYLBENZ[A]ANTHRACENE, 57-97-6, Doses [Carcinogen]: 100 UG IN 100 µL ACETONE TO THE DORSAL SKIN ONCE, Doses [Promoter]: 0, 10, 50 UG IN 100 µL ACETONE TO THE DORSAL SKIN 2/WK FOR 29 WK BEGINNING 1 WK POST CARCINOGEN DOSE (STUDY DURATION: 30, Doses [Promoter]: 0, 10, 50 UG IN 100 µL ACETONE TO THE DORSAL SKIN 2/WK FOR 29 WK BEGINNING 1 WK POST CARCINOGEN DOSE (STUDY DURATION: 30, Route [Carcinogen]: DERMAL, Route [Promoter]: DERMAL, Species: MOUSE, Strain/Sex: CD-1/FEMALE): skin: tumor
